# Entries after “also recorded” stand apart in the source; their conditions may differ.
# How the values were obtained:
# [1] = tested on: patient 487 virus (RT M184V, K103N); test: Phenotypic susceptibility assay (patient virus); format: cell-based, HIV; conditions: patient 487, FIG. 4
# Source text: Phenotypic drug susceptibility and resistance profile: patient 487. […] This is an example of the first pattern of NNRTI susceptibility/resistance.
# (§1) The resistance test vectors containing a functional luciferase gene cassette were constructed and host cells were transfected with the resistance test vector DNA. The resistant test vectors contained patient-derived reverse transcriptase and protease sequences that were either susceptible or resistant to the antiretroviral agents, such as nucleoside reverse transcriptase inhibitors, non-nucleoside reverse transcriptase inhibitors and protease inhibitors. […] The IC50 values were determined by plotting percent drug inhibition vs. log10 drug concentration.
# (§2) Host cells were seeded in 10-cm-diameter dishes and were transfected several days after plating with resistance test vector plasmid DNA and the envelope expression vector. […] HIV capsid protein (p24) levels in the harvested cell culture media were determined by an EIA method as described by the manufacturer (SIAC; Frederick, Md.). […] The inhibitory effect of the drug was determined using the following equation: % luciferase inhibition=1−(RLUluc [drug]÷RLUluc)×100 where RLUluc [drug] is the relative light unit of luciferase activity in infected cells in the presence of drug and RLUluc is the Relative Light Unit of luciferase activity in infected cells in the absence of drug. […]
# [2] = tested on: G190S-RTV and G190A-RTV (mutation at codon 190); test: Phenotypic susceptibility assay (site directed mutant RTV); format: cell-based, HIV-1; conditions: G190A or G190S vs wild type reference RTV; also statements on codon 190 alone or with 103/101
# Description: as §1, §2
# [3] = tested on: RTV-644 (RT K101E, G190S); test: Phenotypic susceptibility assay (patient RTV); format: cell-based, HIV-1; conditions: for decrease in susceptibility (fold, IC50): patient RTV pool; for change in susceptibility: patient virus vs reference virus
# Source text: (§3) The resistance test vectors containing a functional luciferase gene cassette were constructed and host cells were transfected with the resistance test vector DNA. The resistant test vectors contained patient-derived reverse transcriptase and protease sequences that were either susceptible or resistant to the antiretroviral agents, such as nucleoside reverse transcriptase inhibitors, non-nucleoside reverse transcriptase inhibitors and protease inhibitors. The resistance test vector viral particles produced by transfecting the resistance test vector DNA into host cells, either in the presence or absence of protease inhibitors, were used to infect target host cells grown either in the absence of NRTI or NNRTI or in the presence of increasing concentrations of the drug. The amount of luciferase activity produced in infected target host cells in the presence of drug was compared to the amount of luciferase produced in infected target host cells in the absence of drug. Drug resistance was measured as the amount of drug required to inhibit by 50% the luciferase activity detected in the absence of drug (inhibitory concentration 50%, IC50). The IC50 values were determined by plotting percent drug inhibition vs. log10 drug concentration.
# Host cells were seeded in 10-cm-diameter dishes and were transfected several days after plating with resistance test vector plasmid DNA and the envelope expression vector. Transfections were performed using a calcium-phosphate precipitation procedure. The cell culture media containing the DNA precipitate was replaced with fresh medium, from one to 24 hours, after transfection. Cell culture media containing resistance test vector viral particles was harvested one to four days after transfection and was passed through a […] filter before being stored at […]. HIV capsid protein (p24) levels in the harvested cell culture media were determined by an EIA method as described by the manufacturer (SIAC; Frederick, Md.). Before infection, target cells (293 and 293/T) were plated in cell culture media. […] The inhibitory effect of the drug was determined using the following equation: % luciferase inhibition=1−(RLUluc [drug]÷RLUluc)×100 where RLUluc [drug] is the relative light unit of luciferase activity in infected cells in the presence of drug and RLUluc is the Relative Light Unit of luciferase activity in infected cells in the absence of drug. […]
# A resistance test vector was constructed as described in Example 1 from a patient sample designated 97-644. […] RTV-644 was then tested using the phenotypic susceptibility assay to determine accurately and quantitatively the level of susceptibility to a panel of anti-retroviral drugs. […] An IC50 was determined for each drug tested. […]
# [4] = tested on: individual virus clones of patient 302: (K103N, P225H) compared with (K103N, I135M, R211K); test: Phenotypic susceptibility assay (patient virus clones); format: cell-based, HIV; conditions: FIG. 8G
# Source text: as §3, with “Drug resistance was measured as the amount of drug required to inhibit by 50% the luciferase activity detected in the absence of drug (inhibitory concentration 50%, IC50).” left out
# Host cells were seeded in 10-cm-diameter dishes and were transfected several days after plating with resistance test vector plasmid DNA and the envelope expression vector. […] HIV capsid protein (p24) levels in the harvested cell culture media were determined by an EIA method as described by the manufacturer (SIAC; Frederick, Md.). […]
# [5] = tested on: RTV-1060, patient 98-1060 (RT K101E, G190S); test: Phenotypic susceptibility assay (patient RTV); format: cell-based, HIV-1; conditions: patient RTV pool
# Source text: as §3, with “Drug resistance was measured as the amount of drug required to inhibit by 50% the luciferase activity detected in the absence of drug (inhibitory concentration 50%, IC50).” left out
# as §2
# A resistance test vector was constructed as described in Example 1 from a patient sample designated 98-644. […] RTV-644 and RTV-1060 were then tested in a phenotypic, assay to determine accurately and quantitatively the level of susceptibility to a panel of anti-retroviral drugs. […]
# [6] = tested on: K103N and Y181C double mutant; test: Phenotypic susceptibility assay (site directed mutant RTV); format: cell-based, HIV-1; conditions: FIG. 5
# Source text: Phenotypic drug susceptibility and resistance profile of site directed reverse transcriptase mutants.
# as §1, §2
Structure (SMILES),change in susceptibility [1],change in susceptibility [2],"decrease in susceptibility (fold, IC50) [3] [fold]",change in susceptibility [3],effect of P225H on resistance associated with K103N [4],"decrease in susceptibility (fold, IC50) [5]",change in susceptibility [6]
Cc1ccnc2c1NC(=O)c1cccnc1N2C1CC1 [nevirapine],increased resistance,markedly less susceptible; also recorded: greatly reduce susceptibility; also recorded: large decrease,600,resistant,does not alter,greater than 800 fold,further increase in resistance
O=C1Nc2ccc(Cl)cc2[C@@](C#CC2CC2)(C(F)(F)F)O1 [efavirenz],,,,,,900 fold,
CC(C)Nc1cccnc1N1CCN(C(=O)c2cc3cc(NS(C)(=O)=O)ccc3[nH]2)CC1 [delavirdine],increased resistance,slightly more susceptible; also recorded: slightly increase susceptibility; also recorded: slight increase,2.5,little or no resistance,reduces the amount delavirdine resistance,1.5 fold,further increase in resistance

# Source: patent publication US7037644B1, “Means and methods for monitoring non-nucleoside reverse transcriptase inhibitor antiretroviral therapy and guiding therapeutic decisions in the treatment of HIV/AIDS” (ViroLogic, Inc., priority 1998, dated 2006)
